# Measured values taken from publication PMC2957295 (Biochemistry, 2010).
# Target: T1, Fas (Homo sapiens, UniProt P25445)
# T1 sequence (P25445 26-335): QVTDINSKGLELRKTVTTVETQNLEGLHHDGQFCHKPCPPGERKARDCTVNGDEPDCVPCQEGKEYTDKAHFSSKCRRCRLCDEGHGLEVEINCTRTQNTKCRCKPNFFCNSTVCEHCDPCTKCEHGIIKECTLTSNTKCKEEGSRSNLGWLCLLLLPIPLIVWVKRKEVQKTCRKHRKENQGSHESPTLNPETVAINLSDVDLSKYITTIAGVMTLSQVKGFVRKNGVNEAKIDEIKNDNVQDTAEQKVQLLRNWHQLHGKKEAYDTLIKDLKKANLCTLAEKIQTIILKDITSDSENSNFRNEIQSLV
# Assay: anti-Fas immunoprecipitation of treated cells, Western blot for 4-HNE adduct
# Type: cell-based
# Settings: covalent; HepG2 cells, 20 µM 4-HNE, 2 h
smiles,measurement,value
CCCCCC(O)/C=C/C=O (stereo not shown) [4-hydroxy-2-nonenal],4-HNE-Fas adduct,shows the presence of Daxx and 4-HNE-Fas adduct
